# “Also recorded” adds a separate entry of the source. Where a name gives a salt, the structure may show the parent alone. Ends that are not written are not given here.
# Key:
# [1] = intracavernosal, cited from earlier work; for Results of i.c. injection in erectile dysfunction: either alone or in combination
# [2] = cited from earlier work
# [3] = Solubility of the citrate salt in water; type: physicochemical
# [4] = sublingual, cited from earlier work
# [5] = Peak plasma concentration time / response in humans, current oral tablet formulation vs intranasal route; type: in vivo; settings: indicated by rat results
# [6] = currently used oral route; cited from earlier work
# [7] = Absorption of solubilized sildenafil from the nasal cavity of rats (blood concentration after intranasal vs intravenous administration); type: in vivo; settings: for Concentration of sildenafil in the blood of rats, intranasal, mean: n = 5; for Concentration of sildenafil in the blood of rats, intravenous, mean: n = 3
# Method: These experiments determine the bioavailability of sildenafil, or derivatives thereof, after nasal administration and compare it to that after intravenous administration. In particular, the present experiment determined the absorption of sildenafil into the blood of rats following intranasal administration of a formulation in which the sildenafil was solubilized by the addition of mesylic acid (see below).
# The nasal absorption of sildenafil, or derivatives thereof, were measured using an in vivo technique in rats. Rats were fasted overnight prior to experimentation. Surgical procedures were performed under equithesin anesthesia (3 ml/kg, i.p.). An incision was made in the neck of each rat, and the trachea cannulated with polyethylene tubing (PF-260). A closed end tube was inserted through the esophagus to the posterior part of the nasal cavity to prevent drug from entering the esophagus. The nasopalatine passage was closed with an adhesive agent to prevent drainage of the drug from the nasal cavity to the mouth.
# The jugular vein and femoral artery were cannulated with polyethylene tubing for intravenous drug administration and intra-arterial blood sampling.
# Solutions of sildenafil hydrochloride (2 and 4 mg/rat/50 μl) were prepared in water and administered through the right nostril using a microsyringe. For intravenous administration, the same dose of the drug was injected into the jugular vein (1 ml/kg body weight). […]
# Bioavailability of nasally administered drug was calculated by comparing the plasma drug concentrations between nasal and intravenous delivery routes and expressed as a percentage of the intravenous bioavailability.
# The solution instilled into the nasal cavities of the rats in this experiment had the following composition:
# Adjust the pH to 2.8 to 3.0 with 0.05M NaOH
# At various times following the intranasal and intravenous administration of sildenafil to rats, the concentrations of sildenafil in blood were determined using the following analytical method:
# One hundred microliters of rat plasma was treated with 25 microliters of 1M monochloroacetic acid to denature the plasma proteins and release free sildenafil. Seventy-five microliters of acetonitrile was then added to precipitate the proteins. This solution was centifuged for 5 minutes at 5,000 g. The clear supernatant was injected onto the HPLC column.
# The HPLC system consisted of the following:
# The concentrations are expressed as areas under the HPLC curves×10^-4.
molecule,measurement,setting,value
COc1ccc(Cc2nccc3cc(OC)c(OC)cc23)cc1OC [papaverine],Results of i.c. injection in erectile dysfunction,[1],good results
"O=[N+]([O-])OCC(CO[N+](=O)[O-])O[N+](=O)[O-] [glyceryl trinitrate (GTN), glyceryl trinitrate]",Effect of patches applied to the penis,[2],effective
same,Side-effects of patches applied to the penis,[2],produces side-effects in both patient and partner
CCCCC[C@H](O)/C=C/[C@H]1[C@H](O)CC(=O)[C@@H]1CCCCCCC(=O)O [PGE-1],Results of i.c. injection in erectile dysfunction,[1],good results
"vasoactive intestinal polypeptide (VIP): vasoactive intestinal polypeptide (HSDAVFTDNYTRLRKQMAVKKYLNSILN; ends and bridges not checked; UniProt P01282 125-152, looked up)",Activity i.c.,[1],active i.c.
CCCc1nn(C)c2c(=O)[nH]c(-c3cc(S(=O)(=O)N4CCN(C)CC4)ccc3OCC)nc12 [sildenafil citrate],solubility,[3],3500 µg/mL
CC(COc1ccccc1)N(CCCl)Cc1ccccc1 (stereo not drawn) [phenoxybenzamine],Results of i.c. injection in erectile dysfunction,[1],good results
Cc1ccc(N(CC2=NCCN2)c2cccc(O)c2)cc1 [phentolamine],Results of i.c. injection in erectile dysfunction,[1],good results
CN1CCc2cccc3c2[C@H]1Cc1ccc(O)c(O)c1-3 [apomorphine],Effect on erectile function,[4],restore normal erectile function
same,Men returned to sexual potency,[4]; men whose dysfunction had psychological origins,about 70%
"CCCc1nn(C)c2c(=O)[nH]c(-c3cc(S(=O)(=O)N4CCN(C)CC4)ccc3OCC)nc12 [Sildenafil, 5-[2-ethoxy-5-(4-methyl-1-piperazinylsulphonyl)-phenyl]-1-methyl-3-n-propyl-1,6-dihydro-7H-pyrazolo[4,3-d]pyrimidin-7-one]","Response in humans, intranasal route vs current oral tablet",[5],much more rapid response
same,"Time to response, oral route",[6],≥ 60 min
same,Effectiveness of intranasal compared with intravenous administration,[7]; intranasal vs intravenous,as effective as intravenous administration
same,Absorption following intranasal administration,"[7]; intranasal, comparison of areas under blood concentration versus time curves with intravenous (FIG. 1)",complete and very rapid absorption; also recorded: rapidly and complete absorbed
same,"Concentration of sildenafil in the blood of rats, intranasal, mean",[7]; intranasal,11.7 areas under the HPLC curves×10
same,"Concentration of sildenafil in the blood of rats, intranasal, mean","[7]; intranasal, time 2 min",12.1 areas under the HPLC curves×10
same,"Concentration of sildenafil in the blood of rats, intranasal, mean","[7]; intranasal, time 5 min",25.5 areas under the HPLC curves×10
same,"Concentration of sildenafil in the blood of rats, intranasal, mean","[7]; intranasal, time 10 min",38.2 areas under the HPLC curves×10
same,"Concentration of sildenafil in the blood of rats, intranasal, mean","[7]; intranasal, time 15 min",43.5 areas under the HPLC curves×10
same,"Concentration of sildenafil in the blood of rats, intranasal, mean","[7]; intranasal, time 20 min",32.6 areas under the HPLC curves×10
same,"Concentration of sildenafil in the blood of rats, intranasal, mean","[7]; intranasal, time 30 min",31.0 areas under the HPLC curves×10
same,"Concentration of sildenafil in the blood of rats, intranasal, mean","[7]; intranasal, time 40 min",22.7 areas under the HPLC curves×10
same,"Concentration of sildenafil in the blood of rats, intranasal, mean","[7]; intranasal, time 50 min",19.6 areas under the HPLC curves×10
same,"Concentration of sildenafil in the blood of rats, intravenous, mean",[7]; time 0 min,188.8 areas under the HPLC curves×10
same,"Concentration of sildenafil in the blood of rats, intravenous, mean",[7]; time 2 min,84.7 areas under the HPLC curves×10
same,"Concentration of sildenafil in the blood of rats, intravenous, mean",[7]; time 5 min,47.7 areas under the HPLC curves×10
same,"Concentration of sildenafil in the blood of rats, intravenous, mean",[7]; time 10 min,32.0 areas under the HPLC curves×10
same,"Concentration of sildenafil in the blood of rats, intravenous, mean",[7]; time 15 min,19.5 areas under the HPLC curves×10
same,"Concentration of sildenafil in the blood of rats, intravenous, mean",[7]; time 20 min,17.9 areas under the HPLC curves×10
same,"Concentration of sildenafil in the blood of rats, intravenous, mean",[7]; time 30 min,16.0 areas under the HPLC curves×10
same,"Concentration of sildenafil in the blood of rats, intravenous, mean",[7]; time 40 min,14.6 areas under the HPLC curves×10
same,"Concentration of sildenafil in the blood of rats, intravenous, mean",[7]; time 50 min,7.6 areas under the HPLC curves×10
same,Tmax,"[7]; rat, in vivo, rats, intranasal, approximately, read-out: Time of peak blood concentration",10 to 15 min
